Laboratory results reported in ChEMBL document CHEMBL3046466 (Med Chem Res, 2012).

Target: Voltage-dependent L-type calcium channel subunit alpha-1C (Cavia porcellus, UniProt O35505)
Test: Inhibition of Calcium channel in Cavia porcellus albino (guinea pig) ileocecal SMC assessed as inhibition of 80 mM KCl-induced contraction
Settings: for IC30: guinea pig

Voltage-dependent L-type calcium channel subunit alpha-1C, sequence (O35505 whole entry): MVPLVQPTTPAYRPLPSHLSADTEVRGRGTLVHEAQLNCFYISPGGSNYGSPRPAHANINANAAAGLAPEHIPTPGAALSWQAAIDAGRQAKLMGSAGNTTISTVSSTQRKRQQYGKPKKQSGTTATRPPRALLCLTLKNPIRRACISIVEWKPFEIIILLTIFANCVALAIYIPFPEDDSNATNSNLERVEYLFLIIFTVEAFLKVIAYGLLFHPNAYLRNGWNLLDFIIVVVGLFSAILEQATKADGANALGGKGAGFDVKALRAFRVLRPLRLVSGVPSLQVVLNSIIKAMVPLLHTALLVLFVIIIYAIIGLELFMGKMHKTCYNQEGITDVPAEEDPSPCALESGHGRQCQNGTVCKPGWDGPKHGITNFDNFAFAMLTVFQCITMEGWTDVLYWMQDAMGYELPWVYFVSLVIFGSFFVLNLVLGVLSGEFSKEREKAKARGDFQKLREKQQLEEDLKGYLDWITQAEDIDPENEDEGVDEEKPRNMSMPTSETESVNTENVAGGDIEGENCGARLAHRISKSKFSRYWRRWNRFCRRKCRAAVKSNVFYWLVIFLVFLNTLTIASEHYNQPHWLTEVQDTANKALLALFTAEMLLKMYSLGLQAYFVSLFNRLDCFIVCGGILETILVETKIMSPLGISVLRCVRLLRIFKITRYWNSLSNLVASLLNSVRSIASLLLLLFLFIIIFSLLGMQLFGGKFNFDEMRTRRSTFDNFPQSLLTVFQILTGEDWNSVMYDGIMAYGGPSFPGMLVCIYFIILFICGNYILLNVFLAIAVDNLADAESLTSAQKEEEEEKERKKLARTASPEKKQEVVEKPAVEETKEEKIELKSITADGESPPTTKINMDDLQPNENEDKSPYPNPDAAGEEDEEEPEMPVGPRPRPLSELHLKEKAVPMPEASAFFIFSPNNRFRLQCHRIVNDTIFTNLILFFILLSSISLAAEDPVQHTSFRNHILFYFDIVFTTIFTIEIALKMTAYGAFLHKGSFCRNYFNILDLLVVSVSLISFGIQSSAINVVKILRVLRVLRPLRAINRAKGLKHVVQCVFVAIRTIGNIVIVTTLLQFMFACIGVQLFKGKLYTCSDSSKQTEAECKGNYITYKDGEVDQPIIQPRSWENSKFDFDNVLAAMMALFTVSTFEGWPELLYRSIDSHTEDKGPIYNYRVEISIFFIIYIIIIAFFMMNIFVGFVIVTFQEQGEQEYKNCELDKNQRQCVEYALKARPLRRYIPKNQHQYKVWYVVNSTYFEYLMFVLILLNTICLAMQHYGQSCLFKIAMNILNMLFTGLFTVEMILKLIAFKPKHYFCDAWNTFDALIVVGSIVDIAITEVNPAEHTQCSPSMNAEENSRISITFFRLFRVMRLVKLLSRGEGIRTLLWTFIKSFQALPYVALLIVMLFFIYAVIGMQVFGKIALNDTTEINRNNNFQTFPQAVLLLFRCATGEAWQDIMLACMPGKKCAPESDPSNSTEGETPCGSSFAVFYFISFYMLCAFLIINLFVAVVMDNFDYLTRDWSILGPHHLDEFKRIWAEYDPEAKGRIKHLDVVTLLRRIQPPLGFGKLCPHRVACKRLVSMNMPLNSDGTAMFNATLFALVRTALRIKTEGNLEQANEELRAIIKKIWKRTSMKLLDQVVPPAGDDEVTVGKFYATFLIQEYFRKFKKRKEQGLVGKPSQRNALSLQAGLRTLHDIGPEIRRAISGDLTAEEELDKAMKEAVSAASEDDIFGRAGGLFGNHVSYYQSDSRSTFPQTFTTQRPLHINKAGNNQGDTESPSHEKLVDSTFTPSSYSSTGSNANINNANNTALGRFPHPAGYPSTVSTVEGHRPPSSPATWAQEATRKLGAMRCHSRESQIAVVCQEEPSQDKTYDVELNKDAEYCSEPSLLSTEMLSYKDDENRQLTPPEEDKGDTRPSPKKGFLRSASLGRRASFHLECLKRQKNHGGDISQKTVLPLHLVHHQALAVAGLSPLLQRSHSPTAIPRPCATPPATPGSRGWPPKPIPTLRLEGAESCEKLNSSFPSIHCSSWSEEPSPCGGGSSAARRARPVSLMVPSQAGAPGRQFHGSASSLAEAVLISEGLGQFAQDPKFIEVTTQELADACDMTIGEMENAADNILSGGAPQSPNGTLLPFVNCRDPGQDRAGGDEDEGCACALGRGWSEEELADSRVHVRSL

| SMILES | IC50 | IC30 |
| --- | --- | --- |
| CCOC(=O)C1=C(C)NC(C)=C(C(=O)OCC)C1c1cc(=O)cc(C)o1 | 35.9 µM | 1.45 ×10⁻⁶ M |
| CCOC(=O)C1=C(C)NC(C)=C(C(=O)OC)C1c1ccc(-c2cc(=O)cc(-c3ccccc3)o2)cc1 (stereo unspecified) | 94.4 µM | 4.62 ×10⁻⁶ M |
| CCOC(=O)C1=C(C)NC(C)=C(C(=O)OC)C1c1ccc(-c2cc(=O)cc(C)o2)cc1 (stereo unspecified) | 86.1 µM | 4.62 ×10⁻⁶ M |
| COC(=O)C1=C(C)NC(C)=C(C(=O)OC)C1c1ccc(-c2cc(=O)cc(C)o2)cc1 | 17.8 µM | 3.67 ×10⁻⁶ M |
| COC(=O)C1=C(C)NC(C)=C(C(=O)OC)C1c1ccccc1[N+](=O)[O-] [NIFEDIPINE] |  | 1.6 ×10⁻⁸ M |

Further lines, results first:

| IC50 | IC30 | SMILES |
| --- | --- | --- |
| 2.14 µM | 7.2 ×10⁻⁷ M | CCOC(=O)C1=C(C)NC(C)=C(C(=O)OCC)C1c1ccc(-c2cc(=O)cc(C)o2)cc1 |
| 3.24 µM | 1.01 ×10⁻⁶ M | CCOC(=O)C1=C(C)NC(C)=C(C(=O)OCC)C1c1cc(=O)cc(-c2ccccc2)o1 |
| 2.03 µM | 7.18 ×10⁻⁷ M | CCOC(=O)C1=C(C)NC(C)=C(C(=O)OC)C1c1cc(=O)cc(-c2ccccc2)o1 (stereo unspecified) |
| 1.63 µM | 5.38 ×10⁻⁷ M | CCOC(=O)C1=C(C)NC(C)=C(C(=O)OC)C1c1cc(=O)cc(C)o1 (stereo unspecified) |
| 4.71 µM | 1.26 ×10⁻⁶ M | COC(=O)C1=C(C)NC(C)=C(C(=O)OC)C1c1ccc(-c2cc(=O)cc(-c3ccccc3)o2)cc1 |
| 12.2 µM | 6.12 ×10⁻⁶ M | CCOC(=O)C1=C(C)NC(C)=C(C(=O)OCC)C1c1ccc(-c2cc(=O)cc(-c3ccccc3)o2)cc1 |
